Laboratory results reported in patent publication US9018351B2, “Peptide aptamers against tenascin C” (Industry-Academy Cooperation Foundation, priority 2007, dated 2015).

How the values were obtained:
[1] = test system: endogenously expressed tenascin C in the cultured cell lines; test: Immunocytochemistry of cultured cancer cell lines with biotin-labeled peptide; type: binding, human; conditions: 1 mM biotin-labeled peptide, 1 hr, room temperature; for staining of SW620 cells: SW620 (medium tenascin C expression)
Method: FIGS. 3A-3C represent binding pattern of the selected peptides to cultured cells. Cultured cells of SW620 (FIG. 3A), U251 (FIG. 3B) and HCT116 (FIG. 3C) were incubated at room temperature for 1 hr with 1 mM of biotin-labeled peptide aptamers (#1, #2), control peptide (NC), or peptide aptamer #2 (1 mM) plus anti-tenascin C antibody (1:1000 dilution). Nuclei were counterstained with Hoechst33258. Arrows indicate examples of positively stained cells. Magnification, ×1000 (FIG. 3A and FIG. 3C), ×630 (FIG. 3B). Cells were grown on coverslips, fixed with 3.7% paraformaldehyde for 15 min at room temperature, and permeabilized with 0.5% Triton X-100 in PBS. They were washed and blocked in 10% normal calf serum, 0.5% gelatin in PBS for 30 min at room temperature. Staining was carried out with biotin-labeled peptide for 1 hr at room temperature. Secondary TEXAS RED-conjugated streptavidin (Calbiochem, La Jolla, Calif., 1:200 dilution) was applied at room temperature for 50 min in the dark. The cells were counterstained with Hoechst33258. The present inventors utilized U251, SW620 and HCT116 cells as model cell lines for high, medium and no expression of tenascin C protein, respectively (FIG. 1). The biotin-labeled peptide aptamers were used to test whether they recognized the endogenously expressed tenascin C in the cultured cell lines. […] There was no signal with the negative peptide or when aptamer was omitted. Since the peptide aptamer #2 have high frequency and observed a higher level of staining, we used it in subsequent work. The level of staining with U251 cells was higher than with SW620 cells, which may reflect a higher level of tenascin C expression.

[2] = test system: tenascin C-induced cell migration, U118MG cells; test: Wound scratch assay; type: cell-based, human; conditions: serum free medium, 18 hrs
Method: (§1) FIGS. 6A-6D represent reversion of tenascin-C-induced cell morphology and migration by the peptide aptamer. […] Magnification, ×100. FIG. 6B was the results that numbers of round cell was scored and presented as percentage. Four independent experiments were performed. FIG. 6C represented U118MG migration with #2 peptides or scrambled peptides. The data are representative of three independent experiments. SD, P<0.001 relative to no treated samples. […] Whole cell extract were prepared and with anti-β-catenin antibody. Anti-β-actin was used as control.
U118MG cells were grown until they become confluent on a 35 mm dish and were serum starved for 18 hrs in DMEM. A straight line was drawn with a marker on the outer surface of the dish bottom and an artificial wound was made by using a pipet tip. The dish was rinsed and then incubated with the serum free medium in the presence of #2 peptides or #2 scramble peptides. After 18 hrs incubation, cells were counted.

[3] = test system: tenascin C-induced cell rounding; test: Adhesion assay on fibronectin/tenascin C substratum; type: cell-based, human; conditions: glioblastoma cells on fibronectin/tenascin C substratum, 18 hrs
Method: as §1
Microtiter plates (6-well, Nunc, Roskilde, Denmark) were coated with 1 μg/cm^2 of fibrobectin or fibronectin and tenascin C for overnight at 4° C. The noncoated plastic surface was blocked with 1% heat-inactivated BSA in PBS. Before plating, cells were serum starved for 18 hrs in DMEM and trypsinized. Following soybean trypsin inhibitor treatment (100 μg/ml in PBS), cells were resuspended in serum-free medium and counted by hematocytometer. Approximately 1×10^5 cells were plated in each well and the selected peptide aptamer or scramble peptide was treated for 18 hrs, cells were observed under microscope.

[4] = target: T1, tenascin C (Homo sapiens, UniProt P24821); test: Immunofluorescence analysis of lung tissue microarray; type: binding
T1 construct: a tissue microarray prepared with tissues from 52 lung cancer patients; from tissue; host or cells: paraffin-embedded human lung tumor and normal lung tissue (Seoul National University Bundang Hospital)
Method: FIGS. 5A-5D represent detection for binding of peptide aptamer #2 to tumor patient lung tissue. Paraffin-embedded lung tissue from an adenocarcinoma (FIG. 5A), squamous cell carcinoma (FIG. 5B), bronchioloalveolar carcinoma (FIG. 5C) and normal (FIG. 5D) tissue was incubated at 4° C. for O/N with anti-tenascin C antibody (1:1000 dilution) or with biotin-labeled peptide aptamer #2 (10 μM). Tissues were counterstained with Hoechst33258. Magnification, ×630.
The lung tissue microarray was constructed from archived paraffin blocks at Seoul National University Bundang Hospital. It is composed of 36 adenocarcinomas, 15 squamous cell carcinomas, 1 bronchioloalveolar carcinoma, and 1 normal lung. Sections were dewaxed in xylene and rehydrated in graded concentrations of ethanol and distilled water. For antigen retrieval, sections were heated for 20 min in Target Retrieval Solution, Tris/EDTA (pH 9; Dako) using a pressure cooker. Staining was carried out with anti-tenascin C antibody (BC24; Sigma-aldrich, Saint Louis, Mo., 1:1000 dilution) or biotin-labeled peptide for O/N at 4° C. Secondary anti-mouse FITC-conjugated IgG antibody or TEXAS RED-conjugated streptavidin was used for 1 hr at room temperature in the dark. Cells were counterstained with Hoechst33258.

[5] = test system: tenascin C; test: Immunofluorescence on frozen tumor xenograft tissue sections; type: binding, human; conditions: for staining of U118MG-derived tumor xenograft tissue sections: U118MG glioblastoma xenograft in nude mice, 10 μM biotin-labeled peptide or antibody 1:1000, O/N 4° C.
Method: FIGS. 4A-4C represent immunofluorescence detection for binding of #2 peptide aptamer to U118MG-derived tumor xenograft tissue. Frozen tissue sections were incubated at 4° C. for O/N with anti-tenascin C antibody (1:1000 dilution) (FIG. 4A), anti-β-catenin antibody (1:100 dilution) (FIG. 4B), 10 μM biotin-labeled peptide aptamer (#2) or scrambled peptide (#2 scr) (FIG. 4C). Tissues were counterstained with Hoechst33258. Arrows indicate examples of positively stained cells. Magnification, ×630. Results using a xenograft mouse model with HT-29 colon cancer cells are also shown (FIG. 4D).
A tumor xenograft was established by subcutaneous injection of 2×10^6 HT29 or U118MG cells into one flank of nude mice. When the tumor diameter reached approximately 9-10 mm, the mice were killed, and the tumor tissue was obtained and […] for storage at −80° C. Frozen sections 8-10 μm thick were cut, fixed with 3.7% paraformaldehyde for 15 min at room temperature, and permeabilized with 0.5% Triton X-100 in PBS. The cells were washed and blocked with 10% fetal bovine serum, 10% non fat dry milk and 3% BSA in PBS for 2 hrs at room temperature. They were stained with anti-tenascin C antibody (BC24; Sigma-Aldrich, Saint Louis, Miss., 1:1000 dilution), anti-β-catenin antibody (clone 14; BD Transduction Laboratories, Germany, 1:100 dilution), or biotin-labeled peptide for O/N at 4° C. Secondary FITC-conjugated anti-mouse IgG antibody (Sigma-Aldrich, Saint Louis, Miss., 1:1000 dilution) or TEXAS RED-conjugated streptavidin (Calbiochem, La Jolla, Calif., 1:1000 dilution) was used for 1 hr at room temperature in the dark. Cells were counterstained with Hoechst33258.

T1 sequence (P24821 23-2201): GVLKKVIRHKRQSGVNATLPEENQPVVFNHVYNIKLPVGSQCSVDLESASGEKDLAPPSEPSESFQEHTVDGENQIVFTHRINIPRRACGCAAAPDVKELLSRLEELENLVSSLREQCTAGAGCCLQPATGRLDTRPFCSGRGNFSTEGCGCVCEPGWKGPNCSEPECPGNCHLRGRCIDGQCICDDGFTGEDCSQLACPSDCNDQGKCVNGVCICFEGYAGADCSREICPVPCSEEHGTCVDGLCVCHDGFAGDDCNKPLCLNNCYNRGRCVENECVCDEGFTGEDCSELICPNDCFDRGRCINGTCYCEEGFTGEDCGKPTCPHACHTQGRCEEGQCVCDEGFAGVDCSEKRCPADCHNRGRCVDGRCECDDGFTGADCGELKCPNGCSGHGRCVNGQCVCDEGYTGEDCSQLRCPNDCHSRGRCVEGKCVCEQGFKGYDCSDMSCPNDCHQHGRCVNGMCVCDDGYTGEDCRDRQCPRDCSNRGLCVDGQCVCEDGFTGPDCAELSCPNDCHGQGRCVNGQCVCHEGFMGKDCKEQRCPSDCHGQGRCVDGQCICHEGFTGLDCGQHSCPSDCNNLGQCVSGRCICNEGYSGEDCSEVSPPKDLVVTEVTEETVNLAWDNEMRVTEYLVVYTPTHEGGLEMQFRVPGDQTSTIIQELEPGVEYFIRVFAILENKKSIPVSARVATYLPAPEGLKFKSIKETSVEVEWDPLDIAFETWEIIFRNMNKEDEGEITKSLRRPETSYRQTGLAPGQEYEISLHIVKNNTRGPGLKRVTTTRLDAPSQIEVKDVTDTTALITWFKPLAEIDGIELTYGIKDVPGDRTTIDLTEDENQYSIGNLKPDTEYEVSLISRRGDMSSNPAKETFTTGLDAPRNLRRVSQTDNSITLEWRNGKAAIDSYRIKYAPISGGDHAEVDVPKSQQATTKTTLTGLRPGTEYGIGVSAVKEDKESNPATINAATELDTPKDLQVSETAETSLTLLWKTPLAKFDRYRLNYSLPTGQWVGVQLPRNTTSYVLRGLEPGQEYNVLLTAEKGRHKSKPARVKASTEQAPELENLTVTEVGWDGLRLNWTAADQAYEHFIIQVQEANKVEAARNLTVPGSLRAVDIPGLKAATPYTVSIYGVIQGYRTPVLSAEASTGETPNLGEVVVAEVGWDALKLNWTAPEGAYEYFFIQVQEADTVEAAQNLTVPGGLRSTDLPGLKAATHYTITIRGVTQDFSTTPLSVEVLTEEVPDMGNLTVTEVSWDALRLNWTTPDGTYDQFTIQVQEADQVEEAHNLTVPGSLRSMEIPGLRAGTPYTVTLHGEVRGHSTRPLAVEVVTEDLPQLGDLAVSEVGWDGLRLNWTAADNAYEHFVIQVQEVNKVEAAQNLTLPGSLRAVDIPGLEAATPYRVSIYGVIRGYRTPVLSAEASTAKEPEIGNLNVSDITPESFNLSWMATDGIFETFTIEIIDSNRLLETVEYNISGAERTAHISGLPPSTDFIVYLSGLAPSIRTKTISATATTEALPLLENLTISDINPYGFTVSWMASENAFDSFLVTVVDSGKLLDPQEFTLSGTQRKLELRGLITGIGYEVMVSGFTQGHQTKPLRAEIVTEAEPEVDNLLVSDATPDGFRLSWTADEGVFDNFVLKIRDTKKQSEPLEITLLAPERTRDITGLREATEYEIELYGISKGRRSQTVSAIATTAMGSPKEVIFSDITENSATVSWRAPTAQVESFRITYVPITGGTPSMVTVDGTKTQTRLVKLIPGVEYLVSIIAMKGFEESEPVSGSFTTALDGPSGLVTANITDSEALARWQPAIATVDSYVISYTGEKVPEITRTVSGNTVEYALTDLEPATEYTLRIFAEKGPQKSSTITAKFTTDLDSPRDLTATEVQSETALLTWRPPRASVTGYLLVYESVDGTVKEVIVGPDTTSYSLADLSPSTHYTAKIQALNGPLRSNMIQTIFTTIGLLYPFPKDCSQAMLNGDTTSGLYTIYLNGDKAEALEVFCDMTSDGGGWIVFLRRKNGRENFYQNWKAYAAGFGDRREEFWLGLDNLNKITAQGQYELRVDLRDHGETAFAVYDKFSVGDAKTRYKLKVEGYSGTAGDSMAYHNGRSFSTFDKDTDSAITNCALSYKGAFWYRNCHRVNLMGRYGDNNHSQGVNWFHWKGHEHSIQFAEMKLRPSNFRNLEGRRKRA

| Sequence | staining of SW620 cells [1] | effect on tenascin C-induced cell migration [2] | effect on tenascin C-induced rounding morphology [3] | staining of normal lung tissue ([4]; 1 normal lung, 10 μM biotin-labeled peptide, O/N 4° C.) | staining of lung cancer patient tissues ([4]; 52 lung cancer patients, 10 μM biotin-labeled peptide or antibody 1:1000, O/N 4° C.) | staining of HT-29 tumor xenograft tissue sections ([5]; HT-29 colon cancer xenograft (does not express tenascin C)) | staining of U118MG-derived tumor xenograft tissue sections [5] | staining of HCT116 cells ([1]; HCT116 (no tenascin C expression)) | staining of U251 cells ([1]; U251 (high tenascin C expression)) |
| --- | --- | --- | --- | --- | --- | --- | --- | --- | --- |
| FHKPFFPKGSARGGG [peptide aptamer #1] | characteristic staining pattern of spots or long streaks in a polarized region of the plasma membrane |  |  |  |  |  |  |  |  |
| FHKHKSPALSPVGGG [peptide aptamer #2] | characteristic staining pattern of spots or long streaks in a polarized region of the plasma membrane | significantly reduced | significant reversion of tenascin C-induced rounding morphology | No peptide aptamer #2 staining was detected | striking similarity of the staining patterns | no aptamer signal was detected | same prominent pattern of staining in the forms of spots and blobs | no signal was detected | stained two distinct areas of the U251 cells |
| VSPKSHLKAHPFGGG [#2 scramble, scrambled form of peptide #2, control, reference compound] |  | No significant reduction in cell migration | no significant change |  |  |  | no significant staining |  |  |
